{
  "source": "patent US8134015B2",
  "about": "“Compound inhibiting in vivo phosphorous transport and medicine containing the same” (Kyowa Hakko Kirin Co., Ltd., priority 2003, dated 2012)",
  "data": [
    {"molecular_target": "T1, rat NaPi-2b (Rattus norvegicus, UniProt Q9JJ09)", "T1 construct": "expressed in transfected cells; host or cells: Xenopus oocytes injected with cRNA", "T1 sequence (Q9JJ09 1-695)": "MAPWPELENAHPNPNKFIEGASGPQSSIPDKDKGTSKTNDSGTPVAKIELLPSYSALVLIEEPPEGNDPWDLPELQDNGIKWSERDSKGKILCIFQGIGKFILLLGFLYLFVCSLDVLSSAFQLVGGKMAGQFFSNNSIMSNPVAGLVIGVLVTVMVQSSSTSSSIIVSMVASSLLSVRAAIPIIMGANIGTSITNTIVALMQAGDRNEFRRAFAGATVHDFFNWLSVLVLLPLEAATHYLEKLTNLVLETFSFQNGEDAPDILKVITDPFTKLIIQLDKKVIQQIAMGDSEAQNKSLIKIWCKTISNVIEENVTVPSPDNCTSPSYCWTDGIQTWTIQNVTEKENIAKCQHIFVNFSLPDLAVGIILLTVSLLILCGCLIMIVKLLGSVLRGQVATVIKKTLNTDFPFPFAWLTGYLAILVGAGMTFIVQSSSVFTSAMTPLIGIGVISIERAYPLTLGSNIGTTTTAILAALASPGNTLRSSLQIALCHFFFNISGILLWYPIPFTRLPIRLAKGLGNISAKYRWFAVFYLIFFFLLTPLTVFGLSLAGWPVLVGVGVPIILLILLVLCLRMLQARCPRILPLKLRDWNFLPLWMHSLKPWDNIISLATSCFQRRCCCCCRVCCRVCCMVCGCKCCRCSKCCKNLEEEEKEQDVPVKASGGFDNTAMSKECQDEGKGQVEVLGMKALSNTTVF", "assay": "Sodium-dependent phosphate uptake of Xenopus oocytes which expressed NaPi-2b (32P)", "format": "cell-based", "details": "Xenopus oocytes expressing rat NaPi-2b, 32P radioactive phosphorus; read-out: IC50 (phosphate uptake inhibitory activity)", "method_in_brief": "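Rat NaPi-2b cloned from small-intestine cDNA; cRNA injected into Xenopus oocytes, expression for 2 days. Phosphate uptake inhibition measured with 32P; percent inhibition at 300 μM and 100 μM read from the same inhibition curve.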", "units": {"IC50": "nM"}, "values": [
      {"smiles": "CCN(CC)CCN(C)Cc1cccc(C(=O)Nc2ccc(Cl)cc2C(=O)N/N=C/c2cccc(C)c2)c1", "note": "[Compound 381, N-[4-Chloro-2-(3-methyl-benzylidene-hydrazinocarbonyl)-phenyl]-3-{[(2-diethylamino-ethyl)-methyl-amino]-methyl}-benzamide]", "IC50": 1000},
      {"smiles": "CCN(CC)CCN(C)Cc1cccc(C(=O)Nc2ccc(Cl)cc2C(=O)N/N=C/c2ccc(C)cc2)c1", "note": "[Compound 382, N-[4-Chloro-2-(4-methyl-benzylidene-hydrazinocarbonyl)-phenyl]-3-{[(2-diethylamino-ethyl)-methyl-amino]-methyl}-benzamide]", "IC50": 1040},
      {"smiles": "CCN(CC)CCN(C)Cc1cccc(C(=O)Nc2ccc(Cl)cc2C(=O)N/N=C/c2ccc(C)c(C)c2)c1", "note": "[Compound 383, N-[4-Chloro-2-(3,4-dimethyl-benzylidene-hydrazinocarbonyl)-phenyl]-3-{[(2-diethylamino-ethyl)-methyl-amino]-methyl}-benzamide]", "IC50": 1980},
      {"smiles": "CCN(CC)CCN(C)Cc1cccc(C(=O)Nc2ccc(Cl)cc2C(=O)N/N=C/c2ccc(Cl)c(C(F)(F)F)c2)c1", "note": "[Compound 384, N-[4-Chloro-2-(4-chloro-3-trifluoromethyl-benzylidene-hydrazinocarbonyl)-phenyl]-3-{[(2-diethylamino-ethyl)-methyl-amino]-methyl}-benzamide]", "IC50": 250},
      {"smiles": "CCN(CC)CCN(C)Cc1cccc(C(=O)Nc2ccc(Cl)cc2C(=O)N/N=C/c2cccc(OC)c2)c1", "note": "[Compound 385, N-[4-Chloro-2-(3-methoxy-benzylidene-hydrazinocarbonyl)-phenyl]-3-{[(2-diethylamino-ethyl)-methyl-amino]-methyl}-benzamide]", "IC50": 310},
      {"smiles": "CCN(CC)CCN(C)Cc1cccc(C(=O)Nc2ccc(Cl)cc2C(=O)N/N=C/c2ccc(OC)cc2)c1", "note": "[Compound 386, N-[4-Chloro-2-(4-methoxy-benzylidene-hydrazinocarbonyl)-phenyl]-3-{[(2-diethylamino-ethyl)-methyl-amino]-methyl}-benzamide]", "IC50": "< 3000"},
      {"smiles": "CCN(CC)CCN(C)Cc1cccc(C(=O)Nc2ccc(Cl)cc2C(=O)N/N=C/c2cccc(O)c2)c1", "note": "[Compound 387, N-[4-Chloro-2-(3-hydroxy-benzylidene-hydrazinocarbonyl)-phenyl]-3-{[(2-diethylamino-ethyl)-methyl-amino]-methyl}-benzamide]", "IC50": 6450},
      {"smiles": "CCN(CC)CCN(C)Cc1cccc(C(=O)Nc2ccc(Cl)cc2C(=O)N/N=C/c2ccc(O)cc2)c1", "note": "[Compound 388, N-[4-Chloro-2-(4-hydroxy-benzylidene-hydrazinocarbonyl)-phenyl]-3-{[(2-diethylamino-ethyl)-methyl-amino]-methyl}-benzamide]", "IC50": 19700},
      {"smiles": "O=C(Nc1ccc(Cl)cc1C(=O)N/N=C/c1cccc(F)c1)c1cccc(CSc2nc[nH]n2)c1", "note": "[Compound 389, N-[4-Chloro-2-(3-fluoro-benzylidene-hydrazinocarbonyl)-phenyl]-3-(1H-[1,2,4]triazol-3-ylsulfanylmethyl)-benzamide]", "IC50": 1090},
      {"smiles": "O=C(Nc1ccc(Cl)cc1C(=O)N/N=C/c1ccc(F)cc1)c1cccc(CSc2nc[nH]n2)c1", "note": "[Compound 390, N-[4-Chloro-2-(4-fluoro-benzylidene-hydrazinocarbonyl)-phenyl]-3-(1H-[1,2,4]triazol-3-ylsulfanylmethyl)-benzamide]", "IC50": 450},
      {"smiles": "Cc1cccc(/C=N/NC(=O)c2cc(Cl)ccc2NC(=O)c2cccc(CSc3nc[nH]n3)c2)c1", "note": "[Compound 391, N-[4-Chloro-2-(3-methyl-benzylidene-hydrazinocarbonyl)-phenyl]-3-(1H-[1,2,4]triazol-3-ylsulfanylmethyl)-benzamide]", "IC50": 1020},
      {"smiles": "Cc1ccc(/C=N/NC(=O)c2cc(Cl)ccc2NC(=O)c2cccc(CSc3nc[nH]n3)c2)cc1", "note": "[Compound 392, N-[4-Chloro-2-(4-methyl-benzylidene-hydrazinocarbonyl)-phenyl]-3-(1H-[1,2,4]triazol-3-ylsulfanylmethyl)-benzamide]", "IC50": 1420},
      {"smiles": "O=C(Nc1ccc(Cl)cc1C(=O)N/N=C/c1ccc(Cl)c(C(F)(F)F)c1)c1cccc(CSc2nc[nH]n2)c1", "note": "[Compound 393, N-[4-Chloro-2-(4-chloro-3-trifluoromethyl-benzylidene-hydrazinocarbonyl)-phenyl]-3-(1H-[1,2,4]triazol-3-ylsulfanylmethyl)-benzamide]", "IC50": 520},
      {"smiles": "CN(CCO)Cc1cccc(C(=O)Nc2ccc(Cl)cc2C(=O)N/N=C/c2cccc(F)c2)c1", "note": "[Compound 394, N-[4-Chloro-2-(3-fluoro-benzylidene-hydrazinocarbonyl)-phenyl]-3-{[(2-hydroxy-ethyl)-methyl-amino]-methyl}-benzamide]", "IC50": 950},
      {"smiles": "CN(CCO)Cc1cccc(C(=O)Nc2ccc(Cl)cc2C(=O)N/N=C/c2ccc(F)cc2)c1", "note": "[Compound 395, N-[4-Chloro-2-(4-fluoro-benzylidene-hydrazinocarbonyl)-phenyl]-3-{[(2-hydroxy-ethyl)-methyl-amino]-methyl}-benzamide]", "IC50": 8550},
      {"smiles": "Cc1cccc(/C=N/NC(=O)c2cc(Cl)ccc2NC(=O)c2cccc(CN(C)CCO)c2)c1", "note": "[Compound 396, N-[4-Chloro-2-(3-methyl-benzylidene-hydrazinocarbonyl)-phenyl]-3-{[(2-hydroxy-ethyl)-methyl-amino]-methyl}-benzamide]", "IC50": 8190},
      {"smiles": "Cc1ccc(/C=N/NC(=O)c2cc(Cl)ccc2NC(=O)c2cccc(CN(C)CCO)c2)cc1", "note": "[Compound 397, N-[4-Chloro-2-(4-methyl-benzylidene-hydrazinocarbonyl)-phenyl]-3-{[(2-hydroxy-ethyl)-methyl-amino]-methyl}-benzamide]", "IC50": 9250},
      {"smiles": "Cc1ccc(/C=N/NC(=O)c2cc(Cl)ccc2NC(=O)c2cccc(CN(C)CCO)c2)cc1C", "note": "[Compound 398, N-[4-Chloro-2-(3,4-dimethyl-benzylidene-hydrazinocarbonyl)-phenyl]-3-{[(2-hydroxy-ethyl)-methyl-amino]-methyl}-benzamide]", "IC50": "< 300"},
      {"smiles": "CN(CCO)Cc1cccc(C(=O)Nc2ccc(Cl)cc2C(=O)N/N=C/c2ccc(Cl)c(C(F)(F)F)c2)c1", "note": "[Compound 399, N-[4-Chloro-2-(4-chloro-3-trifluoromethyl-benzylidene-hydrazinocarbonyl)-phenyl]-3-{[(2-hydroxy-ethyl)-methyl-amino]-methyl}-benzamide]", "IC50": 3670},
      {"smiles": "COc1cccc(/C=N/NC(=O)c2cc(Cl)ccc2NC(=O)c2cccc(CN(C)CCO)c2)c1", "note": "[Compound 400, N-[4-Chloro-2-(3-methoxy-benzylidene-hydrazinocarbonyl)-phenyl]-3-{[(2-hydroxy-ethyl)-methyl-amino]-methyl}-benzamide]", "IC50": "< 300"},
      {"smiles": "COc1ccc(/C=N/NC(=O)c2cc(Cl)ccc2NC(=O)c2cccc(CN(C)CCO)c2)cc1", "note": "[Compound 401, N-[4-Chloro-2-(4-methoxy-benzylidene-hydrazinocarbonyl)-phenyl]-3-{[(2-hydroxy-ethyl)-methyl-amino]-methyl}-benzamide]", "IC50": 6130},
      {"smiles": "CN(CCO)Cc1cccc(C(=O)Nc2ccc(Cl)cc2C(=O)N/N=C/c2cccc(O)c2)c1", "note": "[Compound 402, N-[4-Chloro-2-(3-hydroxy-benzylidene-hydrazinocarbonyl)-phenyl]-3-{[(2-hydroxy-ethyl)-methyl-amino]-methyl}-benzamide]", "IC50": 14100}
    ]}
  ]
}
